Active and inactive are the calls of the source.
Assays:
Format in all cases: functional, organism-based
Bacillus subtilis = assay: Antimicrobial activity against Bacillus subtilis SCSIO BS01 assessed as inhibition of visible growth measured after 16 to 20 hrs by broth microdilution method
Bacillus thuringiensis = assay: Antimicrobial activity against Bacillus thuringiensis SCSIO BT01 assessed as inhibition of visible growth measured after 16 to 20 hrs by broth microdilution method
Staphylococcus aureus = assay: Antimicrobial activity against Staphylococcus aureus ATCC 29213 assessed as inhibition of visible growth measured after 16 to 20 hrs by broth microdilution method
Escherichia coli = assay: Antimicrobial activity against Escherichia coli ATCC 25922 assessed as inhibition of visible growth measured after 16 to 20 hrs by broth microdilution method
Enterococcus faecalis = assay: Antimicrobial activity against Enterococcus faecalis ATCC 29212 assessed as inhibition of visible growth measured after 16 to 20 hrs by broth microdilution method
Candida albicans = assay: Antimicrobial activity against Candida albicans ATCC 10231 assessed as inhibition of visible growth measured after 16 to 20 hrs by broth microdilution method
Micrococcus luteus = assay: Antimicrobial activity against Micrococcus luteus SCSIO ML01 assessed as inhibition of visible growth measured after 16 to 20 hrs by broth microdilution method

Measured: Activity

CC(C)C[C@@H](NC(=O)[C@H](NC(=O)[C@@H](NC(=O)[C@H](N)C(C)C)C(C)C)C(C)C)C(=O)N[C@H](C(=O)N[C@@H](Cc1ccc(O)cc1)C(=O)O)C(C)C
inactive: all assays above

CC(C)C[C@H]1NC(=O)[C@@H](C(C)C)NC(=O)[C@H](C(C)C)NC(=O)[C@@H](C(C)C)NC(=O)[C@H](Cc2ccc(O)cc2)NC(=O)[C@H](C(C)C)NC1=O
inactive: all assays above

CC[C@H](C)[C@@H]1NC(=O)[C@@H](CC(C)C)NC(=O)[C@@H](C(C)C)NC(=O)[C@H](C(C)C)NC(=O)[C@@H](C(C)C)NC(=O)[C@H](Cc2ccc(O)cc2)NC1=O
inactive: all assays above

CC[C@H](C)[C@H](NC(=O)[C@@H](CC(C)C)NC(=O)[C@H](NC(=O)[C@@H](NC(=O)[C@H](N)C(C)C)C(C)C)C(C)C)C(=O)N[C@@H](Cc1ccc(O)cc1)C(=O)O
inactive: all assays above

From ChEMBL document CHEMBL2331447, “Nocardiamides A and B, two cyclohexapeptides from the marine-derived actinomycete Nocardiopsis sp. CNX037” (J Nat Prod, 2013)
